Measured values: patent publication US12583858B2 (Genentech, Inc., priority 2015, dated 2026)
pEC50: −log10 of the molar value.

Biological target: T1, TDO2 (Homo sapiens, UniProt P48775)
T1 construct: decreased levels of NFK in SW48 cells (high TDO expressing cells)
Experiment: TDO2 cell assay (NFK GreenScreen, SW48 cells)
Type: cell-based
Settings: SW48 cells (high TDO expressing), 200 uM tryptophan, 24 hours; Table 3; read-out: TDO2 Cell Fluor EC50
Experimental: The NFK GreenScreen™ (NTRC, Netherlands) uses a specific chemical probe that binds to N-Formylkynurenine (NFK), a product of tryptophan catabolism facilitated by IDO or TDO and causes fluorescence at 510 nm when excited at 410 nm. […] The assay is multiplexed with Cell Titer-Glo® (Promega) to determine if compounds are cytotoxic. […] Cells are counted on a Vi-Cell (Beckman Coulter). SW48 cells are diluted to 1×10^6 cells/ml in assay media. A172 cells are diluted to 0.24×10^6 cells/ml in assay media. […] 5 ul of assay media containing 1.2 mM tryptophan are added to the SW48 cells for a final concentration of 200 uM tryptophan in each well. 5 ul of assay media containing 600 uM tryptophan and 600 ng/ml IFNγ are added to the A172 cells for a final concentration of 100 uM tryptophan and 100 ng/ml IFNγ in each well. The final DMSO concentration is 0.5%. Cell plates are placed at room temperature in a closed TC hood with the blower off to allow cells to settle for approximately 30 min. Plates are then moved to an incubator set at 37° C., 5% CO2 for 24 hours. After the 24 hour compound incubation, 8 ul of NFK green reagent is added to each well with a Multidrop™ Combi dispenser (Thermo Scientific). Plates are sealed and incubated at 37° C., 5% CO2 for 5 hours, then read on a PHERAstar® (BMG labtech). Data are analyzed by normalizing to DMSO and high inhibitor controls. After the plates have been read for NFK green, 25 ul of Cell Titer-Glo® (Promega) are added to each well, incubated for 15 minutes at room temperature, and read on the Envision (Perkin Elmer). Cell Titer-Glo data are analyzed by normalizing to the DMSO controls. Four-parameter curve fitting is used and EC50 data are reported.

T1 sequence (P48775 whole entry): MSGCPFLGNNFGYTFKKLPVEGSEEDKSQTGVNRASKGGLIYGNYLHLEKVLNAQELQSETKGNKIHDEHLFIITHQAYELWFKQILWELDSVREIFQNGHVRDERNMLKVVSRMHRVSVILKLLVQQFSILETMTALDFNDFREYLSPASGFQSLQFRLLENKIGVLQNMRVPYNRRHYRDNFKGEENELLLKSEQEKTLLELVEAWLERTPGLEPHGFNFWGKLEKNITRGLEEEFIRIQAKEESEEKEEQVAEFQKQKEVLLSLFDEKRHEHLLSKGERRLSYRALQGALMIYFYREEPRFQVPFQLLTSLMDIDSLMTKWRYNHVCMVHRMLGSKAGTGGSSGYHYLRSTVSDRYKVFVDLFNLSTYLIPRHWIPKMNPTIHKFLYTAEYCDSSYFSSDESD

SMILES | pEC50
Nc1cc2n(n1)CCC(C1c3ccccc3-c3cncn31)C2O (single isomer, unassigned) [Example 161g] | < 4.60
Nc1cc2n(n1)CCC(C1c3ccccc3-c3cncn31)C2O (single isomer, unassigned) [Example 161h] | 4.74
OC1c2nonc2CCC1C1c2ccccc2-c2cncn21 (single isomer, unassigned) [Example 163a] | 7.00
OC1c2nonc2CCC1C1c2ccccc2-c2cncn21 (single isomer, unassigned) [Example 163b] | 7.22
OC1c2nonc2CCC1C1c2ccccc2-c2cncn21 (single isomer, unassigned) [Example 163c] | 4.82
OC1c2nonc2CCC1C1c2ccccc2-c2cncn21 (single isomer, unassigned) [Example 163d] | 7.27
OC1c2nonc2CCC1C1c2ccccc2-c2cncn21 (single isomer, unassigned) [Example 163e] | 5.21
OC1c2nonc2CCC1C1c2ccccc2-c2cncn21 (single isomer, unassigned) [Example 163f] | < 4.60
OC1c2nonc2CCC1C1c2ccccc2-c2cncn21 (single isomer, unassigned) [Example 163g] | 6.36
OC1c2nonc2CCC1C1c2ccccc2-c2cncn21 (single isomer, unassigned) [Example 163h] | 6.03
CC1(C)CCCCC1(O)C1c2ccccc2-c2cncn21 (single isomer, unassigned) [Example 164a] | 7.40
CC1(C)CCCCC1(O)C1c2ccccc2-c2cncn21 (single isomer, unassigned) [Example 164b] | 5.12
NC(=O)C1(C(O)C2c3ccccc3-c3cncn32)CC1 (single isomer, unassigned) [Example 165c] | 4.96
Cc1cc2n(n1)CCC(C1c3ccccc3-c3cncn31)C2O (single isomer, unassigned) [Example 166a] | < 4.60
Cc1cc2n(n1)CCC(C1c3ccccc3-c3cncn31)C2O (single isomer, unassigned) [Example 166b] | 6.57
Cc1nc2c(o1)CCC(C1c3ccccc3-c3cncn31)C2O (single isomer, unassigned) [Example 168a] | 6.85
OC1c2cccnc2CCC1C1c2ccc(F)cc2-c2cncn21 (single isomer, unassigned) [Example 169a] | 6.68
O[C@H]1c2cccnc2CC[C@@H]1[C@@H]1c2ccc(F)cc2-c2cncn21 (single isomer, unassigned) [Example 169b] | 4.80
OC1CCOCC1C1c2cccc(F)c2-c2cncn21 (single isomer, unassigned) [Example 170a] | < 4.60
OC1CCOCC1C1c2cccc(F)c2-c2cncn21 (single isomer, unassigned) [Example 170b] | 5.68
OC1CCOCC1C1c2cccc(F)c2-c2cncn21 (single isomer, unassigned) [Example 170c] | < 4.60

SMILES | pEC50
OC1CCOCC1C1c2cccc(F)c2-c2cncn21 (single isomer, unassigned) [Example 170d] | 4.89
Cc1ccc2c(c1)-c1cncn1C2C1COCC1O (single isomer, unassigned) [Example 171a] | 6.00
Cc1ccc2c(c1)-c1cncn1C2C1COCC1O (single isomer, unassigned) [Example 171b] | < 4.60
Cc1ccc2c(c1)-c1cncn1C2C1COCC1O (single isomer, unassigned) [Example 171c] | 5.24
Cc1ccc2c(c1)-c1cncn1C2C1COCC1O (single isomer, unassigned) [Example 171d] | 4.75
NC(=O)c1cc2n(n1)CCC(C1c3ccccc3-c3cncn31)C2O (single isomer, unassigned) [Example 172a] | < 4.60
NC(=O)c1cc2n(n1)CCC(C1c3ccccc3-c3cncn31)C2O (single isomer, unassigned) [Example 172b] | 5.96
OC1c2cc(C(F)F)nn2CCC1C1c2ccccc2-c2cncn21 (single isomer, unassigned) [Example 173a] | < 4.60
OC1c2cc(C(F)F)nn2CCC1C1c2ccccc2-c2cncn21 (single isomer, unassigned) [Example 173b] | 6.37
N#Cc1cc2n(n1)CCC(C1c3ccccc3-c3cncn31)C2O (single isomer, unassigned) [Example 174a] | < 4.60
N#Cc1cc2n(n1)CCC(C1c3ccccc3-c3cncn31)C2O (single isomer, unassigned) [Example 174b] | 6.82
Cc1nc2c(o1)CCC(C1c3ccccc3-c3cncn31)C2O (single isomer, unassigned) [Example 178a] | 6.92
Cc1nc2c(o1)CCC(C1c3ccccc3-c3cncn31)C2O (single isomer, unassigned) [Example 178b] | < 4.60
CS(=O)(=O)N1CCC2(CC1)CC(C1c3ccccc3-c3cncn31)C2O (single isomer, unassigned) [Example 179c] | < 4.60
CS(=O)(=O)N1CCC2(CC1)CC(C1c3ccccc3-c3cncn31)C2O (single isomer, unassigned) [Example 179d] | 6.27
CS(=O)(=O)N1CCC2(CC1)CC(C1c3ccccc3-c3cncn31)C2O (single isomer, unassigned) [Example 179e] | 5.17
CS(=O)(=O)N1CCC2(CC1)CC(C1c3ccccc3-c3cncn31)C2O (single isomer, unassigned) [Example 179f] | 6.92
CS(=O)(=O)N1CCC2(CC1)CC(C1c3ccccc3-c3cncn31)C2O (single isomer, unassigned) [Example 179g] | 6.10
CS(=O)(=O)N1CCC2(CC1)CC(C1c3ccccc3-c3cncn31)C2O (single isomer, unassigned) [Example 179h] | 5.07
CS(=O)(=O)N1CCC2(CCC(C3c4ccccc4-c4cncn43)C2O)CC1 (single isomer, unassigned) [Example 180a] | 6.43
CS(=O)(=O)N1CCC2(CCC(C3c4ccccc4-c4cncn43)C2O)CC1 (single isomer, unassigned) [Example 180b] | < 4.60

SMILES | pEC50
CS(=O)(=O)N1CCC2(CCC(C3c4ccccc4-c4cncn43)C2O)CC1 (single isomer, unassigned) [Example 180c] | 7.01
CS(=O)(=O)N1CCC2(CCC(C3c4ccccc4-c4cncn43)C2O)CC1 (single isomer, unassigned) [Example 180d] | < 4.60
NS(=O)(=O)N1CCC2(CC1)CC(C1c3ccccc3-c3cncn31)C2O (single isomer, unassigned) [Example 181a] | 6.18
NS(=O)(=O)N1CCC2(CC1)CC(C1c3ccccc3-c3cncn31)C2O (single isomer, unassigned) [Example 181b] | < 4.60
NS(=O)(=O)N1CCC2(CC1)CC(C1c3ccccc3-c3cncn31)C2O (single isomer, unassigned) [Example 181c] | < 4.60
NS(=O)(=O)N1CCC2(CC1)CC(C1c3ccccc3-c3cncn31)C2O (single isomer, unassigned) [Example 181d] | 5.52
NS(=O)(=O)N1CCC2(CC1)CC(C1c3ccccc3-c3cncn31)C2O (single isomer, unassigned) [Example 181e] | 4.92
NS(=O)(=O)N1CCC2(CC1)CC(C1c3ccccc3-c3cncn31)C2O (single isomer, unassigned) [Example 181f] | 6.70
NS(=O)(=O)N1CCC2(CC1)CC(C1c3ccccc3-c3cncn31)C2O (single isomer, unassigned) [Example 181g] | 6.03
NS(=O)(=O)N1CCC2(CC1)CC(C1c3ccccc3-c3cncn31)C2O (single isomer, unassigned) [Example 181h] | 4.96
NS(=O)(=O)N1CCC2(CCC(C3c4ccccc4-c4cncn43)C2O)CC1 (single isomer, unassigned) [Example 182a] | < 4.60
NS(=O)(=O)N1CCC2(CCC(C3c4ccccc4-c4cncn43)C2O)CC1 (single isomer, unassigned) [Example 182b] | 6.27
NS(=O)(=O)N1CCC2(CCC(C3c4ccccc4-c4cncn43)C2O)CC1 (single isomer, unassigned) [Example 182c] | 5.34
NS(=O)(=O)N1CCC2(CCC(C3c4ccccc4-c4cncn43)C2O)CC1 (single isomer, unassigned) [Example 182d] | 7.04
OC1c2cncn2CC[C@H]1[C@H]1c2ccccc2-c2cncn21 (stereo in doubt) [Example 07c, (7S,8R)-7-((S)-5H-imidazo[5,1-a]isoindol-5-yl)-5,6,7,8-tetrahydroimidazo[1,5-a]pyridin-8-ol] | 6.37
OC1c2cncn2CC[C@@H]1[C@@H]1c2ccccc2-c2cncn21 (stereo in doubt) [Example 07d, (7R,8S)-7-((R)-5H-imidazo[5,1-a]isoindol-5-yl)-5,6,7,8-tetrahydroimidazo[1,5-a]pyridin-8-ol] | < 4.60
CCS(=O)(=O)N1CC[C@H]([C@H]2c3ccccc3-c3cncn32)[C@@H](O)C1 (stereo in doubt) [Example 16d, (3R,4R)-1-(ethylsulfonyl)-4-((S)-5H-imidazo[5,1-a]isoindol-5-yl)piperidin-3-ol] | < 4.60
NC(=O)c1ccc2c(c1)CC[C@H](C1c3ccccc3-c3cncn31)[C@H]2O (stereo in doubt) [Example 60c, (5R,6R)-5-hydroxy-6-((S)-5H-imidazo[5,1-a]isoindol-5-yl)-5,6,7,8-tetrahydronaphthalene-2-carboxamide] | 5.62
N#Cc1ccc2c(c1)[C@@H](O)[C@@H]([C@H]1c3ccccc3-c3cncn31)CC2 (stereo in doubt) [Example 113d, (7R,8S)-8-hydroxy-7-((S)-5H-imidazo[5,1-a]isoindol-5-yl)-5,6,7,8-tetrahydronaphthalene-2-carbonitrile] | 4.92
N#Cc1ccc2c(c1)[C@H](O)[C@H]([C@@H]1c3ccccc3-c3cncn31)CC2 (stereo in doubt) [Example 113e, (7S,8R)-8-hydroxy-7-((R)-5H-imidazo[5,1-a]isoindol-5-yl)-5,6,7,8-tetrahydronaphthalene-2-carbonitrile] | 5.89
